Assay [1] has as its system HCT-116. The experiment in a line: Induction of cell cycle arrest in human HCT116 cells assessed as minimum concentration required for G2/M versus G1 peak ratio over 2. It counts as functional.
Assay [2] has as its system HCT-116. In words: Antiproliferative activity against human HCT116 cells. It counts as functional, cell-based.
The target of another assay is Aurora kinase B (Homo sapiens, UniProt Q96GD4). In words: Inhibition of aurora B kinase.
The target in the next assay is T1, Aurora kinase A (Homo sapiens, UniProt O14965).
T1 sequence (O14965 whole entry): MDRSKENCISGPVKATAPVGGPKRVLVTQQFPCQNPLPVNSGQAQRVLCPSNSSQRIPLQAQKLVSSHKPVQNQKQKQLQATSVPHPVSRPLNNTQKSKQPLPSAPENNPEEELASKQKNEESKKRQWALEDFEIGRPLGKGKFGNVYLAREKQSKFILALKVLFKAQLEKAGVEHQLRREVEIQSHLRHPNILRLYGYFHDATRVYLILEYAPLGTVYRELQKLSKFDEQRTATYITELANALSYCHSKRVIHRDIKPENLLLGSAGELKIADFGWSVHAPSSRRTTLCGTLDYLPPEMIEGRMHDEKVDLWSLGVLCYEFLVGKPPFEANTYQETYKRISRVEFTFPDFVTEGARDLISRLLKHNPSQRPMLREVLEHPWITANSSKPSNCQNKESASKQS
The experiment in a line: Inhibition of aurora A kinase.

The target in assay [3] is Cyclin-dependent kinase 1 (Homo sapiens, UniProt P06493). In words: Inhibition of CDK1.
Chain of Cyclin-dependent kinase 1 (P06493 whole entry): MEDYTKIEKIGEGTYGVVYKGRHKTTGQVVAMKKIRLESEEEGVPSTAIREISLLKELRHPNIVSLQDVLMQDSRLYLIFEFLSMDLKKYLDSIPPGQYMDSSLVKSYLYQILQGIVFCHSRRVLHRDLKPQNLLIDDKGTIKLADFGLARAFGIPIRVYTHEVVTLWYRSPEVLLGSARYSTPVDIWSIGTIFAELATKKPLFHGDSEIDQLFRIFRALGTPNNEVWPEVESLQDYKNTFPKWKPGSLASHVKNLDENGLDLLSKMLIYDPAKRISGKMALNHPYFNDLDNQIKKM

Chain of Aurora kinase B (Q96GD4 whole entry): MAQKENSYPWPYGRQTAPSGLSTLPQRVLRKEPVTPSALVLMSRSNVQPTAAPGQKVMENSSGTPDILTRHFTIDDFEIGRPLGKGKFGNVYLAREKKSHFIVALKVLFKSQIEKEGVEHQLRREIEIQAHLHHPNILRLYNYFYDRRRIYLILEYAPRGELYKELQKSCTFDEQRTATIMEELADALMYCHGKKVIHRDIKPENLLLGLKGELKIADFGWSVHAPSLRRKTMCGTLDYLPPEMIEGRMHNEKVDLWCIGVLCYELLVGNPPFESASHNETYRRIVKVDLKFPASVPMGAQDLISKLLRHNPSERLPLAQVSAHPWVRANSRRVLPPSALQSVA

For the compound `CN1CCN(C(=O)c2cc(Nc3ncc4cc(/C=N/O)n(C5CCCC5)c4n3)cn2C)CC1`, the Activity in the assay with HCT-116 [1] is 0.002 µM. The IC50 (usually the midpoint of a concentration-inhibition curve) in the assay on HCT-116 [2] worked out at 4 nM; at Aurora kinase B it was 30 nM; against Aurora kinase A, 11 nM; in assay [3], 3 nM.
Turning to `CN1CCN(C(=O)c2cc(Nc3ncc4cc(C(N)=O)n(C5CCCC5)c4n3)cn2C)CC1`, the Activity in the assay with HCT-116 [1] amounted to 0.1 µM. The IC50 is 70 nM in the assay on HCT-116 [2], 11 nM on Aurora kinase B and 500 nM in assay [3].
For the compound `CN1CCN(C(=O)c2cc(Nc3ncc4cc(-c5cnn(Cc6ccccc6)c5)n(C5CCCC5)c4n3)cn2C)CC1`, the Activity with HCT-116 [1] came out at 0.1 µM. The IC50 was found to be 90 nM in the assay with HCT-116 [2], 4 nM at Aurora kinase B, 2 nM at Aurora kinase A and 2000 nM in assay [3].
For the compound `CN1CCN(C(=O)c2cc(Nc3ncc4ccn(C5CCCC5)c4n3)cn2C)CC1`, the Activity in the assay on HCT-116 [1] was determined as 0.3 µM. For the same compound, the IC50 with HCT-116 [2] was determined as 290 nM; on Aurora kinase B, 18 nM; against Aurora kinase A it was 38 nM; in assay [3], 240 nM.
Turning to `CN1CCN(C(=O)c2cc(Nc3ncc4cc(C#N)n(C5CCCC5)c4n3)cn2C)CC1`, the Activity in the assay on HCT-116 [1] came out at 0.065 µM. Besides, the IC50 stood at 40 nM in the assay on HCT-116 [2], 4 nM against Aurora kinase B, 7.5 nM against Aurora kinase A and 6 nM in assay [3].
In the same order, the values of `CN1CCN(C(=O)c2cc(Nc3ncc4cc(C(=O)O)n(C5CCCC5)c4n3)cn2C)CC1` are 10 µM, 12300 nM, 1000 nM, 350 nM and 10000 nM.
As for `CC(C)CCn1cc(-c2cc3cnc(Nc4cc(C(=O)N5CCN(C)CC5)n(C)c4)nc3n2C2CCCC2)cn1`, in the assay with HCT-116 [1], the Activity worked out at 0.1 µM. Moreover, the IC50 in the assay on HCT-116 [2] came to 110 nM; on Aurora kinase B it was 4 nM; against Aurora kinase A, 2 nM; in assay [3], 1400 nM.
Turning to `CN1CCN(C(=O)c2cc(Nc3ncc4cc(-c5ccnn5C)n(C5CCCC5)c4n3)cn2C)CC1`, in the assay with HCT-116 [1], the Activity was found to be 1 µM. The values for the IC50 (in the assay on HCT-116 [2]; against Aurora kinase B; in assay [3]) were 590 nM, 4 nM and 1700 nM, respectively.
As to `CN1CCN(C(=O)c2cc(Nc3ncc4cc(-c5cncn5C)n(C5CCCC5)c4n3)cn2C)CC1`, the Activity in the assay with HCT-116 [1] amounted to 0.003 µM. Also, the IC50 was 5 nM in the assay with HCT-116 [2], 5 nM against Aurora kinase B, 2 nM at Aurora kinase A and 200 nM in assay [3].
In the case of `CN1CCN(C(=O)c2cc(Nc3ncc4cc(-c5cnn(C)c5)n(C5CCCC5)c4n3)cn2C)CC1`, the Activity in the assay with HCT-116 [1] was determined as 0.03 µM. Besides, the IC50 against Aurora kinase B came out at 4 nM; against Aurora kinase A it was 2 nM; in assay [3], 180 nM.
On to `Cc1c(-c2cc3cnc(Nc4cc(C(=O)N5CCN(C)CC5)n(C)c4)nc3n2C2CCCC2)cnn1C`, for which the Activity in the assay with HCT-116 [1] stood at 0.03 µM. Moreover, the concentration for half-maximal inhibition (IC50) with HCT-116 [2] came to 110 nM; at Aurora kinase B, 4 nM; on Aurora kinase A, 2 nM; in assay [3], 330 nM.
On the same counts, the results for `CNCc1cc2cnc(Nc3cc(C(=O)N4CCN(C)CC4)n(C)c3)nc2n1C1CCCC1` are 0.3 µM, 210 nM, 60 nM, 40 nM and 700 nM.
On the same counts, the results for `CN1CCN(C(=O)c2cc(Nc3ncc4cc(CO)n(C5CCCC5)c4n3)cn2C)CC1` are 0.1 µM, 130 nM, 40 nM, 20 nM and 1300 nM.
On the same counts, the results for `CC(O)c1cc2cnc(Nc3cc(C(=O)N4CCN(C)CC4)n(C)c3)nc2n1C1CCCC1` (configuration not stated) are 0.1 µM, 80 nM, 30 nM, 11 nM and 1100 nM.
In the case of `CN1CCN(C(=O)c2cc(Nc3ncc4cc(-c5cnco5)n(C5CCCC5)c4n3)cn2C)CC1`, in the assay on HCT-116 [1], the Activity came to 0.03 µM. For the same compound, the IC50 was 60 nM with HCT-116 [2], 4 nM against Aurora kinase B, 2 nM at Aurora kinase A and 28 nM in assay [3].

(Values after ChEMBL document CHEMBL2029209, “Structure-based design of 2,6,7-trisubstituted-7H-pyrrolo[2,3-d]pyrimidines as Aurora kinases inhibitors” (Bioorg Med Chem Lett, 2012).)
